Measured values: patent US20110275606A1, “SUBSTITUTED PORPHYRINS” (DUKE UNIVERSITY, priority 2009, published 2011)

Tests used:
[1] = Thin layer chromatography Rf (lipophilicity); type: physicochemical; conditions: thin-layer silica, saturated KNO3(aq):H2O:MeCN (1:1:8); measure of lipophilicity
Protocol: Thin layer chromatography (TLC) was carried out in polyester-backed silica-gel sheets without fluorescent indicator (Sigma-Aldrich Z122777-25EA) cut into ˜2×20 cm strips and eluted with a saturated KNO3(aq):H2O:MeCN (1:1:8, v/v/v) mixture in a capped 1 L chamber. Typically, 1 microliter of ˜1 mM samples were applied at ˜1 cm of the strip border and the solvent front was allowed to run ˜12 cm.
(§1) Table indicating the redox properties (E1/2 of the Mn^IIIP/Mn^IIP redox couple) and antioxidant (log kcat for the dismutation of superoxide, O2′^−) properties of ortho and meta isomers of Mn N-substituted pyridylporphyrins. The E1/2 and log kcat were determined as described in Reboucas et al., Dalton Trans., 2008, 1233-42. Rf is the ratio of the drug path over solvent path on thin-layer silica with water/acetonitrile/KNO3 saturated water and is a measure of […]. […] In addition, as the length of the pyridyl substituent increases the SOD activity of the ortho compounds drops while there is no change in the SOD activity of the meta compounds.
Rf is a measure of lipophilicity and is linearly related to log P where P is the partition coefficient between water and n-octanol. (Kos et al., Free Radic. Biol. Med., 47, 72-78, 2009, which is incorporated by reference herein).

CD1 male mice = test: Carrageenan-induced pleurisy; type: in vivo; conditions: 0.3 mg/kg; 4 h after carrageenan
Protocol: Pleurisy is induced by carrageenan. Six to eight week old CD1 male mice are used. The mice are anesthetized with isoflurane and a skin incision is made at the level of the left sixth intercostal space. The underlying muscle is dissected and saline (0.2 ml) or saline containing 1% (w/v) λ-carrageenan (Sigma-Aldrich Ltd, 0.2 ml) is injected into the pleural cavity. The skin incision is closed with a suture and the animals are allowed to recover. At 4 h after the injection of carrageenan, the animals are killed. The chest is carefully opened and the pleural cavity is rinsed with 2 ml of saline solution containing heparin (5 U/ml) and indomethacin (10 μg/ml). The exudate and washing solution is removed by aspiration and the total volume is measured. Any exudate, which is contaminated with blood, is discarded. The amount of exudate is calculated by subtracting the volume injected (2 ml) from the total volume recovered. The leukocytes in the exudate are suspended in phosphate-buffer saline (PBS, 0.01M, pH7.4) and counted with an optical microscope in a Burker's chamber after vital Trypan Blue staining.

[2] = tested on: B16F10 melanoma cell line; test: Hyperthermia plus Mn porphyrin, tumor growth delay; type: in vivo, C57/BL6 mice; conditions: combination with hyperthermia (1d, 5d, 8d); 5 mg/kg twice per day; sacrifice day 9
Protocol: Treatment with hyperthermia and Mn porphyrins leads to a significant delay in tumor growth. In C57/BL6 mice, B16F10 melanoma cell line ([…]) is implanted in right flank. […] Tumor volumes are measured. Animals are sacrificed at day 9.

[3] = tested on: 4T1 window chamber tumors; test: Radiosensitivity of tumor vasculature in vivo (window chamber); set-up: species or system mice; conditions: combined with radiation 3 x 5 Gy; 6 mg/kg/day for three days; between 48 and 72 hours post-radiation
Protocol: 4T1 window chamber tumors are randomized to treatment with PBS or MnTE-2-PyP^5+, and radiation or sham-irradiation. […] Tumors are imaged immediately after radiation (0 hours), and every day thereafter (24, 48, and 72 hours), and these images are used to calculate the tumor vascular length densities.
Mice are anesthetized with sodium pentobarbital (80 mg/kg, i.p.), and a 1-cm diameter circular incision is made in the dorsal skin flap, over which a titanium chamber is surgically implanted. A 10-μL suspension of tumor cells (5×10^3 cells) is then injected into the opposing flap of skin. […] Observations of window chamber tumors are performed daily on restrained, unanaesthetized mice with an inverted Zeiss fluorescence microscope (Carl Zeiss, Jena, Germany). Images are captured onto a personal computer with Scion Image software (Frederick, Md.) and analyzed with Adobe Photoshop (San Jose, Calif.). Tumor volume and vascular length densities are calculated as follows. Briefly, tumor volumes are calculated with the formula: d^2(3.14/2), where the diameter is determined from low-power (2.5×) microscopy images by comparing pixel dimensions with micrometer values. Vascular length densities are measured from medium-power (5×) fields by using image analysis software (Scion Image) to trace the vascular network. […]

Male Sprague-Dawley rats = test: Carrageenan-induced paw oedema; type: in vivo; conditions: 0.3 mg/kg; rat paw
Wildtype (WT) cells = test: Gamma H2AX immunofluorescence, radiation-induced DNA damage; type: cell-based; conditions: 2 Gy, assessed at 15 minutes
Protocol: Radiation-induced DNA damage recognition is measured by γ-H2AX immunofluorescence. Wildtype (WT) cells are propagated in fresh medium with the compounds at specified concentrations. […] WT cells are collected at log phase of their growth cycle, after an 18-hour incubation with the indicated compounds. After treatment, the cells are irradiated with 2 Gy and assessed at 15 minutes. These conditions maximize the yield of DNA damaged cells while minimizing cytotoxicity. The cells are dropped onto cover slips and fixed with 4% paraformaldehyde, semi-permeabilized with 0.5% Triton-X 100 and washed with PBS. Cells are incubated with 1:400 dilution of mouse monoclonal antibody to γ-H2AX (Upstate Biotechnology), followed by 1:200 dilution of goat anti-mouse IgG antibody to immunoglobulin labeled with FITC (Jackson Immunochemicals) in PBS containing 10% FBS for 1.5 and 1 h, respectively. Slides are analyzed for γ-H2AX nuclear foci formation with FISH analysis software (Vysis) on a Leica DM RXA automated microscope equipped with Photometrix SenSyn. All slides are coded by one person and read blindly by another.

WT cells = test: XTT cell proliferation, radiation-induced cytotoxicity; type: cell-based; conditions: 5 Gy, 48 hours post-radiation, compared to untreated irradiated WT cells
Protocol: XTT, a tetrazolium salt, is used to measure cell viability after irradiation exposure. XTT is reduced by viable mitochondria to formazan, which causes a colorimetric change that can be measured at 450 nm. Approximately 5×10^4 cells are seeded per well in 96-well plates and incubated for 18 hours in fresh medium along with the compound at the final concentration indicated (3 replicates each). One set of plates is used as an unirradiated control and the other set was irradiated with 5 Gy. Five Gy is the optimal dose for observing efficient cytotoxicity within 48 hours. An XTT cell proliferation kit (Roche) is used to measure this cytotoxicity. All assays are performed in triplicate and the absorbance is read on a Spectramax plate reader. XTT is used to assess both the toxicity of the compounds and the effect of each compound on IR-induced cytotoxicity. All cells are pre-treated with the indicated compound two hours prior to being irradiated with 5 Gy and are assayed for viability 48 hours post-radiation.

[4] = Redox properties: E1/2 of the Mn^IIIP/Mn^IIP redox couple; type: physicochemical
Protocol: as §1

A-T cells = test: Annexin V/propidium iodide post-radiation apoptosis, A-T cells; type: cell-based; conditions: 5 Gy
Protocol: (§2) Annexin V/propidium iodide staining is used as a second method to measure radiation-induced cytotoxicity. Cells are incubated in fresh medium along with the compounds at the final concentrations indicated. One set of samples is irradiated (5 Gy) to efficiently induce apoptosis within 48 hours. An annexin V/propidium iodide kit (BioVision) is used to detect apoptotic cells. The annexin V is labeled with fluorescein isothiocyanate (FITC) to detect phospholipid phosphatidylserine (PS) on the outer membrane of apoptotic cells; propidium iodide (PI) is used to detect necrotic cells. The assay is performed according to the manufacturer's instructions. Briefly, approximately 5×10^5 cells are washed in PBS, resuspended in annexin V and PI staining solution for 15 min at room temperature and analyzed immediately by flow cytometry (Flow Cytometry Core, UCLA). Annexin V and propidium iodide staining is used to measure post-radiation apoptosis.

wild type cells = test: Annexin V/propidium iodide post-radiation apoptosis, wild type cells; type: cell-based; conditions: 5 Gy
Protocol: as §2

[5] = Antioxidant properties: log kcat for the dismutation of superoxide (SOD activity); type: biochemical
Protocol: as §1

SOD-deficient E. coli = test: Aerobic growth of SOD-deficient E. coli in minimal medium (turbidimetry at 700 nm); type: cell-based, Escherichia coli; conditions: 20 and 30 μM, 19th hour, positive control MnTE-2-PyP^5+
Protocol: Escherichia coli (E. coli) strains used were AB1157, wild type (F-thr-1; leuB6; proA2; his-4; thi-1; argE2; lacY1; galK2; rpsL; supE44; ara-14; xyl-15; mtl-1; tsx-33), and JI1132, SOD-deficient, sodA-sodB-(same as AB1157 plus (sodA::mudPR13)25 (sodB-kan)1-Δ2). Both strains were obtained from J. A. Imlay. In addition to AB/JI strains another strain GC and its SOD-deficient analogue QC were used. The experiments were carried out as described in more detail in Reboucas et al., Dalton Trans., 2008, 1233-42. Briefly, cultures were grown aerobically in a 5 amino acid restricted medium (L-leucine, L-threonine, L-proline, L-arginine, L-histidine) in flasks on a water bath shaker at 37° C. and 200 rpm. The effect of the compound of Example 1 on the growth of these strains was followed turbidimetrically at 700 nm (to minimize the interference of compounds studied) and compared to the growth curves of both strains in the absence of Mn porphyrin (controls). Deionized water was used throughout the study. The effects are shown in FIG. 2 for one strain (QC and GC) and in FIG. 3 for other strain (AB and JI). […] The effects varied with the type of the strain.

Question: For `OCCC[n+]1ccccc1-c1c2nc(c(-c3cccc[n+]3CCCO)c3ccc([nH]3)c(-c3cccc[n+]3CCCO)c3nc(c(-c4cccc[n+]4CCCO)c4ccc1[nH]4)C=C3)C=C2` [H2TnPrOH-2-PyP], which Rf [1] is on record?
Answer: 0.09

Question: With `OCCC[n+]1cccc(-c2c3nc(c(-c4ccc[n+](CCCO)c4)c4ccc([nH]4)c(-c4ccc[n+](CCCO)c4)c4nc(c(-c5ccc[n+](CCCO)c5)c5ccc2[nH]5)C=C4)C=C3)c1` [H2TnPrOH-3-PyP] as the compound, how does the Rf [1] read?
Answer: 0.1

Question: What does the source list for MnTnPrOH-2-PyP^5+?
Answer: decrease of myeloperoxidase activity (CD1 male mice): to control levels; decrease of number of polymorphonuclear cells (CD1 male mice): to control levels; decrease of volume of exudates (CD1 male mice): to control levels; delay of tumor growth [2]: Full delay of tumor growth; tumor devascularization (vascular length density) [3]: significant tumor devascularization; decrease of myeloperoxidase activity (Male Sprague-Dawley rats): to control levels; decrease of number of polymorphonuclear cells (Male Sprague-Dawley rats): to control levels; reduction of IR-induced γ-H2AX immunofluorescent nuclear foci (IRIFs) (Wildtype (WT) cells): 57%; reduction of IR-induced cytotoxicity (WT cells): 50%; E1/2 [4]: +238 mV; reduction in the percentage of apoptotic cells after radiation exposure (A-T cells): 40%; Rf [1]: 0.05; reduction in the percentage of apoptotic cells after radiation exposure (wild type cells): 60%; logkcat [5]: 7.38

Question: With MnTnPrOH-3-PyP^5+ as the compound, how does the “decrease of myeloperoxidase activity” value (CD1 male mice) read?
Answer: to control levels

Question: And the “decrease of number of polymorphonuclear cells” value (CD1 male mice)?
Answer: to control levels

Question: And the “decrease of volume of exudates” value (CD1 male mice)?
Answer: to control levels

Question: What about the “delay of tumor growth” value [2] of the same compound?
Answer: Full delay of tumor growth

Question: What about the “tumor devascularization (vascular length density)” value [3] of the same compound?
Answer: significant tumor devascularization

Question: And the “decrease of myeloperoxidase activity” value (Male Sprague-Dawley rats)?
Answer: to control levels

Question: What about the “decrease of number of polymorphonuclear cells” value (Male Sprague-Dawley rats) of the same compound?
Answer: to control levels

Question: What about the “reduction of IR-induced γ-H2AX immunofluorescent nuclear foci (IRIFs)” value (Wildtype (WT) cells) of the same compound?
Answer: 57%

Question: What about the “reduction of IR-induced cytotoxicity” value (WT cells) of the same compound?
Answer: 50%

Question: And the E1/2 [4]?
Answer: +52 mV

Question: What about the “reduction in the percentage of apoptotic cells after radiation exposure” value (A-T cells) of the same compound?
Answer: 40%

Question: And the “reduction in the percentage of apoptotic cells after radiation exposure” value (wild type cells)?
Answer: 60%

Question: What about the “protecting E. coli compared with MnTE-2-PyP^5+ (FIG. 3)” value (SOD-deficient E. coli; SOD-deficient strain JI / wild type AB) of the same compound?
Answer: better

Question: What about the “protecting E. coli compared with MnTE-2-PyP^5+ (FIG. 2)” value (SOD-deficient E. coli; SOD-deficient strain QC / wild type GC) of the same compound?
Answer: similar

Question: And the logkcat [5]?
Answer: 6.83
